Data set [1] in a line: Single dose oral pharmacokinetic study. The format is in vivo, mice. Particulars: mouse, plasma; Mice oral PK @30 mg/kg (Table 3). As for the experimental part: The test item was administered through oral route to animals (rat/mice) at 30 mg/kg dose in a suitable vehicle at 10 ml/kg dose volume. Blood samples (˜50 uL at each time point) were collected from retro-orbital plexus using K3 EDTA as anticoagulant in eppendorf tubes at defined time intervals under light ether anesthesia. The samples were centrifuged at 3500×g to separate plasma and stored at −80° C. until analysis.
Sample analysis: Test samples were analyzed using LC-MS-MS after developing fit-for-purpose method for each of test compound.

The subject of another data set is HIV-1 strain 92HT599. Briefly: Antiviral activity: p24 estimation in MT2 cells infected with HIV-1 strain 92HT599. Format: cell-based. Particulars: for inhibition at 0.1 µM: Human immunodeficiency virus 1, 100 nM; for inhibition at 0.1 µM / inhibition at 1 µM: HIV-1 92HT599, p24, ~96 hours; for inhibition at 1 µM: Human immunodeficiency virus 1, 1000 nM; for IC50: Human immunodeficiency virus 1, HIV-1 92HT599, p24. How it is done: MT2 cells were infected with HIV-1 strain 92HT599 (10 TCID 50/30000 cells). The infected cells were plated at the concentration of ˜30 000 cells per well in 96 well plate. Test compound was added to the micro plate in defined format with the final concentration of DMSO (vehicle) is not more than 1%. Incubation was carried out in CO2 incubator for ˜96 hours for viral infection. At the end of incubation period an aliquot from each well was taken for p24 estimation. The quantitation of p24 is an index for antiviral activity of the compound. Percent inhibition was calculated with reference to control values (vehicle controls). p-24 estimation was carried out using Advance biosciences kit as per the procedure detailed by supplier.

The next data set deals with MT2 cells. The data set can be described thus: in vitro. To be noted: human, 1 µM. Format: cell-based. As for the experimental part: (§1) For cyto-toxicity assay the same amount of MT2 cells as in antiviral assay without virus was added to the 96 well plates. The cyto-toxicity was measured using MTT reagent in parallel with p24 estimation. The percent viability is calculated in comparison with vehicle control.

Another data set can be described thus: in vitro. The format is cell-based. To be noted: human, Cytotoxicity % viability. How it is done:
as §1

Consider `C=C(C)[C@@H]1CC[C@]2(C(=O)N3CCC[C@H]3c3ncc(-c4ccccc4)[nH]3)CC[C@]3(C)[C@H](CC[C@@H]4[C@@]5(C)CC[C@H](OC(=O)CC(C)(C)CC(=O)O)C(C)(C)[C@@H]5CC[C@]43C)[C@@H]12` [Compound 9, 3,3-dimethyl-5-oxo-5-((1R,3aS,5aR,5bR,7aR,9S,11aR,11bR,13aR,13bR)-5a,5b,8,8,11a-pentamethyl-3a-((S)-2-(5-phenyl-1H-imidazol-2-yl)pyrrolidine-1-carbonyl)-1-(prop-1-en-2-yl)icosahydro-1H-cyclopenta[a]chrysen-9-yloxy)pentanoic acid], for which, in data set [1], the area under the curve AUC(0-t) came out at 58 µg·h/mL, the Cmax amounted to 5.46 µg/mL and the Tmax was found to be 6 h. Further, in the data set on HIV-1 strain 92HT599, the inhibition at 0.1 µM is 81% and the inhibition at 1 µM is 98%. The compound further displayed a Cytotoxicity % viability with MT2 cells of 99%. Also, the viability at 1 µM in “in vitro” turned out to be 100%.
As to `C=C(C)[C@@H]1CC[C@]2(C(=O)N3CCC[C@H]3c3ncc(-c4cccnc4)[nH]3)CC[C@]3(C)[C@H](CC[C@@H]4[C@@]5(C)CC[C@H](OC(=O)CC(C)(C)C(=O)O)C(C)(C)[C@@H]5CC[C@]43C)[C@@H]12` [Compound 10, 2,2-dimethyl-4-oxo-4-((1R,3aS,5aR,5bR,7aR,9S,11aR,11bR,13aR,13bR)-5a,5b,8,8,11a-pentamethyl-1-(prop-1-en-2-yl)-3a-((S)-2-(5-(pyridin-3-yl)-1H-imidazol-2-yl)pyrrolidine-1-carbonyl)icosahydro-1H-cyclopenta[a]chrysen-9-yloxy)butanoic acid], in data set [1], the AUC(0-t) was found to be 40.5 µg·h/mL, the highest level (Cmax) was 5.84 µg/mL and the Tmax came to 1.13 h. Further, in the data set with HIV-1 strain 92HT599, the inhibition at 0.1 µM was 100%, the inhibition at 1 µM was 100% and the IC50 was 0.8 nM. The Cytotoxicity % viability with MT2 cells is 81%. The same compound displayed a viability at 1 µM in the data set “in vitro” of 82%.
For the compound `C=C(C)[C@@H]1CC[C@]2(C(=O)N3CCC[C@H]3c3ncc(-c4ccccc4)[nH]3)CC[C@]3(C)[C@H](CC[C@@H]4[C@@]5(C)CC[C@H](OC(=O)[C@H]6C[C@@H](C(=O)O)C6(C)C)C(C)(C)[C@@H]5CC[C@]43C)[C@@H]12` [Compound 14], in data set [1], the area under the curve AUC(0-t) came to 171 µg·h/mL, the Cmax is 11 µg/mL and the Tmax came out at 5 h. Moreover, in the data set on HIV-1 strain 92HT599, the inhibition at 0.1 µM is 94%, the inhibition at 1 µM is 100% and the concentration for half-maximal inhibition (IC50) was 15.3 nM. This compound also came in with a Cytotoxicity % viability in the data set with MT2 cells of 86%. For the same compound, the viability at 1 µM in “in vitro” was determined as 82%.
In the case of `C=C(C)[C@@H]1CC[C@]2(C(=O)N3CCC[C@@H]3c3nc(-c4cccnc4)no3)CC[C@]3(C)[C@H](CC[C@@H]4[C@@]5(C)CC[C@H](OC(=O)CC(C)(C)C(=O)O)C(C)(C)[C@@H]5CC[C@]43C)[C@@H]12` [Compound 3, 2,2-dimethyl-4-oxo-4-((1R,3aS,5aR,5bR,7aR,9S,11aR,11bR,13aR,13bR)-5a,5b,8,8,11a-pentamethyl-1-(prop-1-en-2-yl)-3a-((R)-2-(3-(pyridin-3-yl)-1,2,4-oxadiazol-5-yl)pyrrolidine-1-carbonyl)icosahydro-1H-cyclopenta[a]chrysen-9-yloxy)butanoic acid], in data set [1], the AUC(0-t) was 66.5 µg·h/mL, the peak level (Cmax) was 7.43 µg/mL and the time to peak (Tmax) turned out to be 1.75 h. In addition, in the data set with HIV-1 strain 92HT599, the inhibition at 0.1 µM is 100%, the inhibition at 1 µM was 100% and the concentration for half-maximal inhibition (IC50) was 3.34 nM. Further, in the data set on MT2 cells, the Cytotoxicity % viability was 100%. The same compound came in with a viability at 1 µM in “in vitro” of 97%.
For the compound `C=C(C)[C@@H]1CC[C@]2(C(=O)N3CCC[C@H]3c3ncc(-c4cccnc4)[nH]3)CC[C@]3(C)[C@H](CC[C@@H]4[C@@]5(C)CC[C@H](OC(=O)CC(C)(C)CC(=O)O)C(C)(C)[C@@H]5CC[C@]43C)[C@@H]12` [Compound 11, 3,3-dimethyl-5-oxo-5-((1R,3aS,5aR,5bR,7aR,9S,11aR,11bR,13aR,13bR)-5a,5b,8,8,11a-pentamethyl-1-(prop-1-en-2-yl)-3a-((S)-2-(5-(pyridin-3-yl)-1H-imidazol-2-yl)pyrrolidine-1-carbonyl)icosahydro-1H-cyclopenta[a]chrysen-9-yloxy)pentanoic acid], in data set [1], the exposure AUC(0-t) was found to be 59.5 µg·h/mL, the Cmax turned out to be 7.62 µg/mL and the Tmax is 1.25 h. Besides, in the data set with HIV-1 strain 92HT599, the inhibition at 0.1 µM was 99%, the inhibition at 1 µM is 100% and the half-maximal inhibitory concentration (IC50) is 1.51 nM. For the same compound, the Cytotoxicity % viability in the data set on MT2 cells is reported as 84%. In addition, in “in vitro”, the viability at 1 µM amounted to 80%.
In the case of `CC(C)(CC(=O)O)CC(=O)O[C@H]1CC[C@]2(C)[C@H]3CC[C@@H]4[C@H]5[C@H](C6(C)CC6)CC[C@]5(C(=O)N5CCC[C@H]5c5ncc(-c6ccccc6)[nH]5)CC[C@@]4(C)[C@]3(C)CC[C@H]2C1(C)C` [Compound 13, 3,3-dimethyl-5-oxo-5-((1R,3aS,5aR,5bR,7aR,9S,11aR,11bR,13aR,13bR)-5a,5b,8,8,11a-pentamethyl-1-(1-methylcyclopropyl)-3a-((S)-2-(5-phenyl-1H-imidazol-2-yl)pyrrolidine-1-carbonyl)icosahydro-1H-cyclopenta[a]chrysen-9-yloxy)pentanoic acid], in data set [1], the AUC(0-t) was determined as 156 µg·h/mL, the concentration peaked (Cmax) at 11.1 µg/mL and the Tmax came out at 4 h. Further, in the data set on HIV-1 strain 92HT599, the inhibition at 0.1 µM is 78% and the inhibition at 1 µM is 100%. Also, in the data set on MT2 cells, the Cytotoxicity % viability is on record as 72%. In the data set “in vitro”, this compound had a viability at 1 µM of 74%.
On to `C=C(C)[C@@H]1CC[C@]2(C(=O)N3CCC[C@@H]3c3nc(-c4ccccc4)no3)CC[C@]3(C)[C@H](CC[C@@H]4[C@@]5(C)CC[C@H](OC(=O)CC(C)(C)CC(=O)O)C(C)(C)[C@@H]5CC[C@]43C)[C@@H]12` [Compound 2, 3,3-dimethyl-5-oxo-5-((1R,3aS,5aR,5bR,7aR,9S,11aR,11bR,13aR,13bR)-5a,5b,8,8,11a-pentamethyl-3a-((R)-2-(3-phenyl-1,2,4-oxadiazol-5-yl)pyrrolidine-1-carbonyl)-1-(prop-1-en-2-yl)icosahydro-1H-cyclopenta[a]chrysen-9-yloxy)pentanoic acid], for which, in the data set on HIV-1 strain 92HT599, the inhibition at 0.1 µM was 30% and the inhibition at 1 µM is 90%. In the data set on MT2 cells, this compound registered a Cytotoxicity % viability of 92%. Besides, the viability at 1 µM in “in vitro” is 90%.
Consider `C=C(C)[C@@H]1CC[C@]2(C(=O)N3CCC[C@H]3c3ncc(-c4ccccc4)[nH]3)CC[C@]3(C)[C@H](CC[C@@H]4[C@@]5(C)CC[C@H](OC(=O)CC(C)(C)C(=O)O)C(C)(C)[C@@H]5CC[C@]43C)[C@@H]12` [Compound 8, 2,2-dimethyl-4-oxo-4-((1R,3aS,5aR,5bR,7aR,9S,11aR,11bR,13aR,13bR)-5a,5b,8,8,11a-pentamethyl-3a-((S)-2-(5-phenyl-1H-imidazol-2-yl)pyrrolidine-1-carbonyl)-1-(prop-1-en-2-yl)icosahydro-1H-cyclopenta[a]chrysen-9-yloxy)butanoic acid], for which, in data set [1], the area under the curve AUC(0-t) stood at 143 µg·h/mL, the maximum concentration (Cmax) was 11.1 µg/mL and the Tmax amounted to 3.75 h. Also, in the data set with HIV-1 strain 92HT599, the inhibition at 0.1 µM is 100%, the inhibition at 1 µM is 100% and the IC50 is 12.9 nM. In the data set with MT2 cells, this compound returned a Cytotoxicity % viability of 88%. This compound also registered a viability at 1 µM in “in vitro” of 96%.

(Values after patent US9637516B2, “Betulinic acid proline derivatives as HIV inhibitors” (HETERO RESEARCH FOUNDATION, priority 2012, dated 2017).)
